Test results as given in patent US20260327221A1, “INHIBITORS OF CYCLIC GMP-AMP SYNTHASE AND USES THEREOF” (Ventus Therapeutics U.S., Inc., priority 2023, published 2026).

What follows are compounds tested against hcGAS (Homo sapiens, UniProt Q8N884) (assay: hcGAS LCMS assay (direct measurement of cGAMP production by LC/MS)). Conditions: 4 h incubation with enzyme and substrates; cGAMP production by LC/MS; class symbols; read-out: hcGAS LCMS IC50.
Format: biochemical
In short: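 Enzyme, substrates (ATP, GTP) and compound incubated 4 h, then quenched with acetonitrile/water containing 0.15 uM 13C/15N-labeled cGAMP internal standard. cGAMP formed quantified directly by LC/MS on HILIC amide column; IC50 values reported in potency bins.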

hcGAS, sequence (Q8N884 whole entry): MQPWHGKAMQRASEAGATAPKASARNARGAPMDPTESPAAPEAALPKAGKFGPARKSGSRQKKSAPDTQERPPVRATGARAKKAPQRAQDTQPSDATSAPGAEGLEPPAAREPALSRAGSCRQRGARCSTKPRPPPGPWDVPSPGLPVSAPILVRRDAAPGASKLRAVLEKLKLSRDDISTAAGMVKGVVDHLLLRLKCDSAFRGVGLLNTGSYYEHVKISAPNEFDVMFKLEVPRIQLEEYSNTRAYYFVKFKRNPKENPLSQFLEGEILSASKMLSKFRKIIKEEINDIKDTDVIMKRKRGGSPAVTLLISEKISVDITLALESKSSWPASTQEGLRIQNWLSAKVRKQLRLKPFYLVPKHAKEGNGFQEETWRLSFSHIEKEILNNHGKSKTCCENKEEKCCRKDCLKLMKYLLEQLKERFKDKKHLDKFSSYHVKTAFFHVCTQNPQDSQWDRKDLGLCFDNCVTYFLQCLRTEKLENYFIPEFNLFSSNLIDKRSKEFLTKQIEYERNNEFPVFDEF

SMILES	IC50 [nM]
COc1cccc(OC)c1-c1cc(C(=O)Nc2nnc(-n3nccc3N)s2)oc(=O)c1OCCN1C2CSCC1C2 [Compound 94, 3-(2-(3-thia-6-azabicyclo[3.1.1]heptan-6-yl)ethoxy)-N-(5-(5-amino-1H-pyrazol-1-yl)-1,3,4-thiadiazol-2-yl)-4-(2,6-dimethoxyphenyl)-2-oxo-2H-pyran-6-carboxamide]	0.5 to 1
COc1cccc(OC)c1-c1cc(C(=O)Nc2nnc(-n3nccc3N)s2)oc(=O)c1OCCC(C)(C)O [Compound 59, N-(5-(5-amino-1H-pyrazol-1-yl)-1,3,4-thiadiazol-2-yl)-4-(2,6-dimethoxyphenyl)-3-(3-hydroxy-3-methylbutoxy)-2-oxo-2H-pyran-6-carboxamide]	< 0.5
COCC(CN1CCOCC1)Oc1c(-c2c(OC)cccc2OC)cc(C(=O)Nc2nnc(-n3nccc3N)s2)oc1=O (centres unmarked) [84A*/84B*]	5 to 20
COCCOc1c(-c2ncccc2OC2CC2)cc(C(=O)Nc2nnc(-n3nccc3N)s2)oc1=O [Compound 70, N-(5-(5-amino-1H-pyrazol-1-yl)-1,3,4-thiadiazol-2-yl)-4-(3-cyclopropoxypyridin-2-yl)-3-(2-methoxyethoxy)-2-oxo-2H-pyran-6-carboxamide]	0.5 to 1
COCCOc1c(-c2c(OC)cccc2OC)cc(C(=O)Nc2nnc(-c3c(Cl)ccn3C)s2)oc1=O [Compound 5, N-(5-(3-chloro-1-methyl-1H-pyrrol-2-yl)-1,3,4-thiadiazol-2-yl)-4-(2,6-dimethoxyphenyl)-3-(2-methoxyethoxy)-2-oxo-2H-pyran-6-carboxamide]	< 0.5
COc1cccc(OC)c1-c1cc(C(=O)Nc2nnc(-n3nccc3N)s2)oc(=O)c1OCCO [Compound 17, N-(5-(5-amino-1H-pyrazol-1-yl)-1,3,4-thiadiazol-2-yl)-4-(2,6-dimethoxyphenyl)-3-(2-hydroxyethoxy)-2-oxo-2H-pyran-6-carboxamide]	< 0.5
COCC(C)(C)COc1c(-c2ncccc2OC)cc(C(=O)Nc2nnc(-n3nccc3N)s2)oc1=O [Compound 29, N-(5-(5-amino-1H-pyrazol-1-yl)-1,3,4-thiadiazol-2-yl)-3-(3-methoxy-2,2-dimethylpropoxy)-4-(3-methoxypyridin-2-yl)-2-oxo-2H-pyran-6-carboxamide]	1 to 5
COc1c(-c2c(C#N)cnn2C)cc(C(=O)Nc2nnc(-n3nccc3C)s2)oc1=O [Compound 14, 4-(4-cyano-1-methyl-1H-pyrazol-5-yl)-3-methoxy-N-(5-(5-methyl-1H-pyrazol-1-yl)-1,3,4-thiadiazol-2-yl)-2-oxo-2H-pyran-6-carboxamide]	20 to 60
COc1cccc(OC)c1-c1cc(C(=O)Nc2nnc(-n3nccc3N)s2)oc(=O)c1O[C@H](CO)CN1CCSCC1 [81A*, (S)-N-(5-(5-amino-1H-pyrazol-1-yl)-1,3,4-thiadiazol-2-yl)-4-(2,6-dimethoxyphenyl)-3-((1-hydroxy-3-thiomorpholinopropan-2-yl)oxy)-2-oxo-2H-pyran-6-carboxamide]	1 to 5
COc1cccc(OC)c1-c1cc(C(=O)Nc2nnc(-n3nccc3N)s2)oc(=O)c1OCCN1CCSC(CO)C1 (centres unmarked) [100A*/100B*]	1 to 5
COCCOc1c(-c2c(Cl)cccc2OC)cc(C(=O)Nc2nnc(-n3nccc3N)s2)oc1=O (single isomer, unassigned) [Compound 15B*, (Sa)-N-(5-(5-amino-1H-pyrazol-1-yl)-1,3,4-thiadiazol-2-yl)-4-(2-chloro-6-methoxyphenyl)-3-(2-methoxyethoxy)-2-oxo-2H-pyran-6-carboxamide]	< 0.5
COc1cccc(OC)c1-c1cc(C(=O)Nc2nnc(-n3nccc3N)s2)oc(=O)c1O[C@H](C)CO (single isomer, unassigned) [Compound 55B*]	0.5 to 1
COc1cccnc1-c1cc(C(=O)Nc2nnc(-n3nccc3N)s2)oc(=O)c1O[C@@H](C)CO [Compound 107A, (S)—N-(5-(5-amino-1H-pyrazol-1-yl)-1,3,4-thiadiazol-2-yl)-3-((1-hydroxypropan-2-yl)oxy)-4-(3-methoxypyridin-2-yl)-2-oxo-2H-pyran-6-carboxamide]	1 to 5
COc1cccc(OC)c1-c1cc(C(=O)Nc2nnc(-n3nccc3N)s2)oc(=O)c1O[C@@H]1CC[C@H](O)C1 (relative stereo) [64C*/D*]	0.5 to 1
COc1cccc(OC)c1-c1cc(C(=O)Nc2nnc(-n3nccc3N)s2)oc(=O)c1OC[C@@H](CO)OC [38B*, (R)-N-(5-(5-amino-1H-pyrazol-1-yl)-1,3,4-thiadiazol-2-yl)-4-(2,6-dimethoxyphenyl)-3-(3-hydroxy-2-methoxypropoxy)-2-oxo-2H-pyran-6-carboxamide]	0.5 to 1
COCCOc1c(-c2c(C#N)cccc2CO)cc(C(=O)Nc2nnc(-n3nccc3N)s2)oc1=O [Compound 48, N-(5-(5-amino-1H-pyrazol-1-yl)-1,3,4-thiadiazol-2-yl)-4-(2-cyano-6-(hydroxymethyl)phenyl)-3-(2-methoxyethoxy)-2-oxo-2H-pyran-6-carboxamide]	0.5 to 1
COCCOc1c(-c2c(CC#N)cccc2OC)cc(C(=O)Nc2nnc(-n3nccc3N)s2)oc1=O [Compound 32, N-(5-(5-amino-1H-pyrazol-1-yl)-1,3,4-thiadiazol-2-yl)-4-(2-(cyanomethyl)-6-methoxyphenyl)-3-(2-methoxyethoxy)-2-oxo-2H-pyran-6-carboxamide]	1 to 5
COCCOc1c(-c2c(OC)cccc2OC)cc(C(=O)Nc2nnc(-n3nccc3N)s2)oc1=O [Compound 6, N-(5-(5-amino-1H-pyrazol-1-yl)-1,3,4-thiadiazol-2-yl)-4-(2,6-dimethoxyphenyl)-3-(2-methoxyethoxy)-2-oxo-2H-pyran-6-carboxamide]	0.5 to 1
COCCOc1c(-c2c(O)cccc2Cl)cc(C(=O)Nc2nnc(-n3nccc3N)s2)oc1=O [Compound 41, N-(5-(5-amino-1H-pyrazol-1-yl)-1,3,4-thiadiazol-2-yl)-4-(2-chloro-6-hydroxyphenyl)-3-(2-methoxyethoxy)-2-oxo-2H-pyran-6-carboxamide]	< 0.5
COCCOc1c(-c2c(C)cccc2C#N)cc(C(=O)Nc2nnc(-n3nccc3N)s2)oc1=O (single isomer, unassigned) [Compound 24A*, (Ra)—N-(5-(5-amino-1H-pyrazol-1-yl)-1,3,4-thiadiazol-2-yl)-4-(2-cyano-6-methylphenyl)-3-(2-methoxyethoxy)-2-oxo-2H-pyran-6-carboxamide]	< 0.5
COc1cccnc1-c1cc(C(=O)Nc2nnc(-n3nccc3N)s2)oc(=O)c1O[C@@H]1CC[C@@H](O)C1 (single isomer, unassigned) [112A*]	1 to 5
COc1cccc(OC)c1-c1cc(C(=O)Nc2nnc(-n3nccc3N)s2)oc(=O)c1OCC(C)(C)CO [Compound 36, N-(5-(5-amino-1H-pyrazol-1-yl)-1,3,4-thiadiazol-2-yl)-4-(2,6-dimethoxyphenyl)-3-(3-hydroxy-2,2-dimethylpropoxy)-2-oxo-2H-pyran-6-carboxamide]	0.5 to 1
COCCOc1c(-c2c(C#N)cccc2OC)cc(C(=O)Nc2nnc(-n3nccc3C(F)F)s2)oc1=O [Compound 23, 4-(2-cyano-6-methoxyphenyl)-N-(5-(5-(difluoromethyl)-1H-pyrazol-1-yl)-1,3,4-thiadiazol-2-yl)-3-(2-methoxyethoxy)-2-oxo-2H-pyran-6-carboxamide]	0.5 to 1

Same assay, conditions: compared with Compound 1, from activity classes of Table D

SMILES	cGAS potency relative to Compound 1
COCCOc1c(-c2c(O)cccc2Cl)cc(C(=O)Nc2nnc(-n3nccc3N)s2)oc1=O [Compound 41, N-(5-(5-amino-1H-pyrazol-1-yl)-1,3,4-thiadiazol-2-yl)-4-(2-chloro-6-hydroxyphenyl)-3-(2-methoxyethoxy)-2-oxo-2H-pyran-6-carboxamide]	improved cGAS potency

Same assay, conditions: hcGAS 0.5 nM; ATP 100 μM; GTP 100 μM; dsDNA 25 nM; pH 7.4; 4 h incubation; read-out: hcGAS inhibition IC50 (activity class, Table D)

SMILES	IC50 [nM]
COCCOc1c(-c2c(O)cccc2Cl)cc(C(=O)Nc2nnc(-n3nccc3N)s2)oc1=O [Compound 41, N-(5-(5-amino-1H-pyrazol-1-yl)-1,3,4-thiadiazol-2-yl)-4-(2-chloro-6-hydroxyphenyl)-3-(2-methoxyethoxy)-2-oxo-2H-pyran-6-carboxamide]	< 0.5
COCCOc1c(-c2c(C)cccc2C#N)cc(C(=O)Nc2nnc(-n3nccc3N)s2)oc1=O (single isomer, unassigned) [Compound 24A*, (Ra)—N-(5-(5-amino-1H-pyrazol-1-yl)-1,3,4-thiadiazol-2-yl)-4-(2-cyano-6-methylphenyl)-3-(2-methoxyethoxy)-2-oxo-2H-pyran-6-carboxamide]	< 0.5
